# Where “and” joins values, the source holds several entries; their conditions need not be identical. Equal entries are not always repeated.
# Columns and labels:
# OATP2B1 = biological target: T1, OATP2B1 (Homo sapiens, UniProt O94956); test: Cellular uptake in HEK293/OATP2B1‐transfected versus mock cells; type: in vitro ADME; conditions: OATP2B1, at 1.5 min
# T1 construct: host or cells: HEK293
# T1 sequence (O94956 1-709): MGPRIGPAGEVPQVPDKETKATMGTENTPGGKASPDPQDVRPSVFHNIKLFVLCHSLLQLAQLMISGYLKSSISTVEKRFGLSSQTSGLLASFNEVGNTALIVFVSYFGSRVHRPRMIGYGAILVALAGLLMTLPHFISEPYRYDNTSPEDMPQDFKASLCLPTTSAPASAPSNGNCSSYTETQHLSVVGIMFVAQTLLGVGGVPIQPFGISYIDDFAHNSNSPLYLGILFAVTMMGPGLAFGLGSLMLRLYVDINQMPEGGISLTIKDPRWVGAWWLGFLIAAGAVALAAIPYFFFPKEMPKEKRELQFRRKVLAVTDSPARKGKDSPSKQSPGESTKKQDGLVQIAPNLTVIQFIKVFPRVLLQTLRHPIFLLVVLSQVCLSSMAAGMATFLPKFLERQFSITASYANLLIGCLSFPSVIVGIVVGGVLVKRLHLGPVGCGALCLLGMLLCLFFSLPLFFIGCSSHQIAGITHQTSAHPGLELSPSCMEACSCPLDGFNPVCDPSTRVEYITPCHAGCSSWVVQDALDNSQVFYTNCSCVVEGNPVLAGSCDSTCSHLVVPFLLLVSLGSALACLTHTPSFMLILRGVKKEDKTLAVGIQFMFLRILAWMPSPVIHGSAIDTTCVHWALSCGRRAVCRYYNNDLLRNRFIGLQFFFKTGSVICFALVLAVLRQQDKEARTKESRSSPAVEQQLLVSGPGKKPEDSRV
# Method: (§4) Cells were then washed three times × 1.0 mL each with pre‐warmed Hank's Balanced Salt Solution (HBSS) buffer. A 0.5 mL aliquot of uptake buffer [HBSS plus 10 mM 4‐(2‐hydroxyethyl)‐1‐piperazineethanesulfonic acid (HEPES), pH 7.4], containing the radiolabelled prototypical substrate and mannitol, was then incubated for various times up to 60 min to determine the optimal incubation time for subsequent experiments (i.e. time of sampling during linear uptake conditions). At the designated times, 1.0 mL of ice‐cold HBSS buffer was added to stop uptake after which the cells were rinsed three times with 1.0 mL with ice‐cold HBSS. Hyamine hydroxide (0.33 mL) was then added to each well to lyse the cells. The cells were transferred into a scintillation vial and mixed with 6.0 mL of cytosine scintillation cocktail. Radioactivity of the solubilized cells was determined with a dual‐channel liquid scintillation counter (Beckman LS 6000; Beckman Coulter Inc., Fullerton, CA) and the protein quantified by a bicinchoninic acid protein assay kit (Pierce Biotechnology; Rockford, IL).
# OAT3 = biological target: T2, OAT3 (Homo sapiens, UniProt Q8TCC7); test: Cellular uptake in HEK293/OAT3‐transfected versus mock cells; type: in vitro ADME; conditions: OAT3, at 5.0 min
# T2 construct: host or cells: HEK293
# T2 sequence (Q8TCC7 1-542): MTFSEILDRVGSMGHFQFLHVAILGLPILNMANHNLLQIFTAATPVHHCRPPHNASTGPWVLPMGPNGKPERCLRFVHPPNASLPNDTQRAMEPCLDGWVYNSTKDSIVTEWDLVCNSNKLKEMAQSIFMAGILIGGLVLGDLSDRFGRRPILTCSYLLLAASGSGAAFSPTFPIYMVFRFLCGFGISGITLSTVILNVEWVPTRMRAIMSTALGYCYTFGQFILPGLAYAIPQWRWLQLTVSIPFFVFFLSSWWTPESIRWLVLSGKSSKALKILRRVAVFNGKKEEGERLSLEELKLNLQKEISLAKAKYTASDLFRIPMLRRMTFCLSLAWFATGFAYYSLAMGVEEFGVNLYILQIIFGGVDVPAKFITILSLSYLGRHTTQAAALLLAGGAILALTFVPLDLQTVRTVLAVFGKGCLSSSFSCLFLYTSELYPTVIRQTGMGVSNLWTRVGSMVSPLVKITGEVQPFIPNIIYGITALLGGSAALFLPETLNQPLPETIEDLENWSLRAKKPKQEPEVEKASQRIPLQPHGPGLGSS
# Method: as §4
# [1] = Transepithelial transport in MDCKII mock cells; type: in vitro ADME; conditions: dog, MDCK
# Method: (§1) Cells were then washed three times, each with 0.5 mL pre‐warmed HBSS buffer. […] The cells were then incubated for various times up to 60 min. […] At the designated times, 15 μL of apical buffer and 50 μL of basolateral buffer were sampled. Once all the samples were collected, 0.5 mL of ice‐cold HBSS buffer was added to the well to stop transport after which the cells were rinsed three times with 0.5 mL of ice‐cold HBSS. The filters with monolayers were then detached from the chamber and placed in a scintillation vial, and the cells were lysed with 0.33 mL hyamine hydroxide.
# (§2) The permeability of digoxin and rosuvastatin (prototypical substrates for MDR1 and BCRP, respectively) was determined by the following ^18 : (4) Papp=CR·VR/CD^o·A·∆Δt, where Papp is the apparent permeability, CR is the concentration of substrate in the receiver chamber, CD^o is the concentration of substrate in the donor chamber at time zero, VR is the volume of buffer in the receiver chamber, A is the surface area of the insert filter membrane, and ∆t is the time over which permeability is measured.
# BCRP (ABCG2) = biological target: T3, BCRP (ABCG2) (Homo sapiens, UniProt Q9UNQ0); test: Transepithelial transport of rosuvastatin (±TCMCB07) in MDCKII/BCRP cells; type: in vitro ADME; conditions: human, pH 7.4, MDCKII/BCRP, rosuvastatin alone
# T3 construct: host or cells: MDCKII
# T3 sequence (Q9UNQ0 1-655): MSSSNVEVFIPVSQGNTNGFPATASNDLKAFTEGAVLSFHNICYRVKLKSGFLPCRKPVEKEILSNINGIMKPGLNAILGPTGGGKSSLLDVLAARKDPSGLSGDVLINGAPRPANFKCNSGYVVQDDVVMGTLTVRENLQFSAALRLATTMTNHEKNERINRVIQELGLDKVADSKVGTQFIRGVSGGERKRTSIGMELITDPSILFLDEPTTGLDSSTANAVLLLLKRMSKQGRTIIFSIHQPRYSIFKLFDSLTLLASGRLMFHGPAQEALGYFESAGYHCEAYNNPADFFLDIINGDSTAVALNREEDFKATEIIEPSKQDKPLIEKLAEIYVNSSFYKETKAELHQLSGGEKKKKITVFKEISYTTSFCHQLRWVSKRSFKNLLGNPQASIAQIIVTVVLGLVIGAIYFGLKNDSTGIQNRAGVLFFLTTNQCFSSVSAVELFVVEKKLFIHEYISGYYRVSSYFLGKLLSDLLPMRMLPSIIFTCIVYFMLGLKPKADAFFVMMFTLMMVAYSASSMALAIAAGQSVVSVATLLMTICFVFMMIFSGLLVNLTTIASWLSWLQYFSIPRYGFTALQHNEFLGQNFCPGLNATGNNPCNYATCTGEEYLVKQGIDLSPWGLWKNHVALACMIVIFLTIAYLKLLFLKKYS
# Method: as §1, §2
# A similar analysis can be performed for rosuvastatin by substituting ERRos for ERDig and ERRos+T for ERDig+T in Eqn 6.
# OCT2 = biological target: T4, OCT2 (Homo sapiens, UniProt O15244); test: Cellular uptake in HEK293/OCT2‐transfected versus mock cells; type: in vitro ADME; conditions: OCT2, at 5.0 min
# T4 construct: host or cells: HEK293
# T4 sequence (O15244 1-555): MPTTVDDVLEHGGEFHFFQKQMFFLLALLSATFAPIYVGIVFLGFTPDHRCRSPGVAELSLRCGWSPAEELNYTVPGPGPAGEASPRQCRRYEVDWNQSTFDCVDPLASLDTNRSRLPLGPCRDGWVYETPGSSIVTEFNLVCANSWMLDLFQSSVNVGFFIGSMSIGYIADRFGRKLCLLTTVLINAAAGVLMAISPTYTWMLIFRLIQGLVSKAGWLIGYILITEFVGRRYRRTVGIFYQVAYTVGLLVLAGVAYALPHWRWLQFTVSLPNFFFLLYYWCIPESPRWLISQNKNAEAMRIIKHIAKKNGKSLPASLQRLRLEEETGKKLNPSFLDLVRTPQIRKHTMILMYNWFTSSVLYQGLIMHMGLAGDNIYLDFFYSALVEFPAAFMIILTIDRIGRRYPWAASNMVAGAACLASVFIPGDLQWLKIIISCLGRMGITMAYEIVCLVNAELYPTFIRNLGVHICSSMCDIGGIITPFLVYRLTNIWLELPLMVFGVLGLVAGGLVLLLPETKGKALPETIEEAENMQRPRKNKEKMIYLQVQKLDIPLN
# Method: as §4
# [2] = In vivo mass balance study (urinary and faecal recovery) in mice
# Method: Each mouse was then placed in a metabolic cage for 24 h, along with food and water, and the urine and faeces were collected. The metabolic cage was washed several times, after which 100 μL aliquots of diluted urine and faeces was placed in separate vials. Radioactivity measurements were then performed as described previously. All animal procedures were approved by the Institutional Animal Care and Use Committee at the University of Michigan, Ann Arbor.
# MATE2‐K = MATE2‐K (Homo sapiens, UniProt Q86VL8); test: Cellular uptake in HEK293/MATE2‐K‐transfected versus mock cells; type: in vitro ADME; set-up: host or cells: HEK293; conditions: at 2.0 min
# MATE2‐K, sequence (Q86VL8 1-566 isoform Q86VL8-3): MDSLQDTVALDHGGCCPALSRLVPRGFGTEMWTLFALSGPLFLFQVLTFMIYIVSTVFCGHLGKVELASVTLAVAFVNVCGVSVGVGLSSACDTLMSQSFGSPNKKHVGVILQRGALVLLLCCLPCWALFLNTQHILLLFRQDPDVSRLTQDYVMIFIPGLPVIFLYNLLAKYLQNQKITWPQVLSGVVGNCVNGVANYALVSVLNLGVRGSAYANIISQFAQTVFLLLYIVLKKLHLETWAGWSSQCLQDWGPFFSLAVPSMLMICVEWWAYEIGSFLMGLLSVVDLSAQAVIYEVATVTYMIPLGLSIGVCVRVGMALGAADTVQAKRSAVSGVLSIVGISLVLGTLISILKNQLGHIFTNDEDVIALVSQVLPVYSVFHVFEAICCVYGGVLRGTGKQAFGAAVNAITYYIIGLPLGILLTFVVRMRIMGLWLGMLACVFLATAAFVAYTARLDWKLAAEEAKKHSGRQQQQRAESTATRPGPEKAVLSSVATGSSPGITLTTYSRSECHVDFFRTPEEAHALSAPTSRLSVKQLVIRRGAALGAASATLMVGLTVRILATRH
# Method: (§3) However, for these studies, a different incubation buffer was used (145 mM NaCl, 3 mM KCl, 1 mM CaCl2, 0.5 mM MgCl2, 5 mM glucose, and 5 mM HEPES, pH 7.4). ^13 Moreover, intracellular acidification was achieved by preincubating the cells in buffer containing 30 mM ammonium chloride for 20 min at 37°C. […] Radioactivity and protein measurements were performed as described previously.
# MATE1 = biological target: T5, MATE1 (Homo sapiens, UniProt Q96FL8); test: Cellular uptake in HEK293/MATE1‐transfected versus mock cells; type: in vitro ADME; set-up: host or cells: HEK293; conditions: MATE1, at 2.0 min
# T5 sequence (Q96FL8 1-570): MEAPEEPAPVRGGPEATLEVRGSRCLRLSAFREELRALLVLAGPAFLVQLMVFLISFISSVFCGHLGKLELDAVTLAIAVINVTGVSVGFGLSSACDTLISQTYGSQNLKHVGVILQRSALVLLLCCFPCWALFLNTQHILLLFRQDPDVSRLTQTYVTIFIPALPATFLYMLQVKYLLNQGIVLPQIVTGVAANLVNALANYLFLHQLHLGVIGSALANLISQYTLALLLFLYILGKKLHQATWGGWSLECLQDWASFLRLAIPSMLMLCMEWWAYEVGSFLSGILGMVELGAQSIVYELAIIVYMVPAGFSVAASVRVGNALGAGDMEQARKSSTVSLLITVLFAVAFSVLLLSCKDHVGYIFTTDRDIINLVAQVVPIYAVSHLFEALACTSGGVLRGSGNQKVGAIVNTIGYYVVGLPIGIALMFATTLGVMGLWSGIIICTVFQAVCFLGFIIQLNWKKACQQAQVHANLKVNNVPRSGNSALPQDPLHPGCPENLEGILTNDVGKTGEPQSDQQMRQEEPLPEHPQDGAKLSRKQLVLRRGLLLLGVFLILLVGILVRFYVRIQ
# Method: as §3
# human P‐gp (ABCB1, MDR1) = biological target: T6, human P‐gp (ABCB1, MDR1) (Homo sapiens, UniProt P08183); test: Transepithelial transport of digoxin (±TCMCB07) in MDCKII/MDR1 cells; type: in vitro ADME; conditions: MDCKII/MDR1, digoxin alone
# T6 construct: host or cells: MDCKII
# T6 sequence (P08183 whole entry): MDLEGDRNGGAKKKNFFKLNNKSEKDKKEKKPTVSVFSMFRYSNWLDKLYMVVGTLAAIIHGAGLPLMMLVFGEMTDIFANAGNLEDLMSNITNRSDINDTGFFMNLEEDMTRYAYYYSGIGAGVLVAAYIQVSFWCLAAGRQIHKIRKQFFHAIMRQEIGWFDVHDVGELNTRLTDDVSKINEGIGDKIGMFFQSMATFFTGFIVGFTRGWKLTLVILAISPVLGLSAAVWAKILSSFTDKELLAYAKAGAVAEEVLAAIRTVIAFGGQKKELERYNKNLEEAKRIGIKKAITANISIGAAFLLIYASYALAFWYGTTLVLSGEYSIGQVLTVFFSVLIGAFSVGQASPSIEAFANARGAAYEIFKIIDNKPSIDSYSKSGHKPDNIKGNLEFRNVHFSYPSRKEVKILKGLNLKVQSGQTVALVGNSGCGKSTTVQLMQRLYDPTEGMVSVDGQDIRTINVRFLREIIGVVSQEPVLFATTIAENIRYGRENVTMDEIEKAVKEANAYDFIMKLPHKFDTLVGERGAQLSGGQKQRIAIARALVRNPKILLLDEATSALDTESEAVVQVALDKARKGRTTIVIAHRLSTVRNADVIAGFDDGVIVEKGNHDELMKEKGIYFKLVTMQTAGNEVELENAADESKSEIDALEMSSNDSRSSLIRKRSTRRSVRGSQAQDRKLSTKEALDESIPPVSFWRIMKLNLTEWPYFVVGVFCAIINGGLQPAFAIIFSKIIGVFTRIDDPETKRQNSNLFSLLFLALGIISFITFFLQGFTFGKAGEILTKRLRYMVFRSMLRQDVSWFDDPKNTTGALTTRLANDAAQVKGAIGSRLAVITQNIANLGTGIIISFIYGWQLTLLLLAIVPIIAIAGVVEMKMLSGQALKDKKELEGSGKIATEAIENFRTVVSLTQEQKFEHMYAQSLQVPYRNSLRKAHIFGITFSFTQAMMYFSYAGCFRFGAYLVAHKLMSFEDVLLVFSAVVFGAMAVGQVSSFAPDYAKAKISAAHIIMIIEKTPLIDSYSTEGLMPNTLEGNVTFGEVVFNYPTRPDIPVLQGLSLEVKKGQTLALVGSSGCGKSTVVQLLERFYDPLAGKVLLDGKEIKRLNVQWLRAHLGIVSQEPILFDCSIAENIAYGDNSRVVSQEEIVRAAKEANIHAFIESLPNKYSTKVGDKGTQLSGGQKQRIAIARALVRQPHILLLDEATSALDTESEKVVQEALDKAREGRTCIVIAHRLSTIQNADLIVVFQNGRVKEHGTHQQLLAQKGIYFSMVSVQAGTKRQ
# Method: as §1, §2
# [3] = table values multiplied ×10^6, cm/s
compound,measurement,setting,value
C[C@]12CC[C@@H]3c4ccc(OS(=O)(=O)O)cc4CC[C@H]3[C@@H]1CCC2=O [estrone 3‐sulfate],mean enhancement of uptake (transfected/mock),OATP2B1,63.5
same,mean enhancement of uptake (transfected/mock),OAT3,470
"CC(C)c1nc(N(C)S(C)(=O)=O)nc(-c2ccc(F)cc2)c1/C=C/[C@@H](O)C[C@@H](O)CC(=O)O [Rosuvastatin, rosuvastatin]",efflux ratio at 21 nM,"[1]; pH 7.4, read-out: mean efflux ratio of rosuvastatin",3.1
same,Papp A→B at 21 nM,"[1]; pH 7.4, read-out: mean permeability of rosuvastatin (A to B)",18 ×10⁻⁶ cm/s
same,Papp B→A at 21 nM,"[1]; pH 7.4, read-out: mean permeability of rosuvastatin (B to A)",55 ×10⁻⁶ cm/s
same,efflux ratio at 21 nM,"BCRP (ABCG2); read-out: Efflux ratio of rosuvastatin, Papp B to A/Papp A to B",7 ± 0.3
same,Papp A→B at 21 nM,BCRP (ABCG2); [3],11 ± 0.1 ×10⁻⁶ cm/s
same,Papp B→A at 21 nM,BCRP (ABCG2); [3],76.8 ± 4.1 ×10⁻⁶ cm/s
C[n+]1ccc(-c2ccccc2)cc1 [1‐methyl‐4‐phenylpyridinium],mean enhancement of uptake (transfected/mock),OCT2,373
inulin,"% Urinary recovery, intravenous inulin","[2]; individual mice, [3H]inulin iv bolus given with intravenous TCMCB07, 24 h collection",104% and 93.2% and 95.1%
same,"% Urinary recovery, intravenous inulin","[2]; individual mice, [3H]inulin iv bolus given with oral TCMCB07, 24 h collection (mouse 2: 48 h)",106% and 100% and 107%
same,"% Urinary recovery, intravenous inulin","[2]; mean of 3 mice, given with intravenous TCMCB07",97.4%
same,"% Urinary recovery, intravenous inulin","[2]; mean of 4 mice, given with oral TCMCB07",105%
CC[N+](CC)(CC)CC [tetraethylammonium],mean enhancement of uptake (transfected/mock),MATE2‐K,46.7
same,mean enhancement of uptake (transfected/mock),MATE1,122
"C[C@H]1O[C@@H](O[C@H]2[C@@H](O)C[C@H](O[C@H]3[C@@H](O)C[C@H](O[C@H]4CC[C@@]5(C)[C@H](CC[C@@H]6[C@@H]5C[C@@H](O)[C@]5(C)[C@@H](C7=CC(=O)OC7)CC[C@]65O)C4)O[C@@H]3C)O[C@@H]2C)C[C@H](O)[C@@H]1O [Digoxin, digoxin]",efflux ratio at 38 nM,"[1]; pH 7.4, read-out: mean efflux ratio of digoxin",4.5
same,Papp A→B at 38 nM,"[1]; pH 7.4, read-out: mean permeability of digoxin (A to B)",6.3 ×10⁻⁶ cm/s
same,Papp B→A at 38 nM,"[1]; pH 7.4, read-out: mean permeability of digoxin (B to A)",20.8 ×10⁻⁶ cm/s
same,"Efflux ratio of digoxin, Papp B to A/Papp A to B","human P‐gp (ABCB1, MDR1)",24.2 ± 7.3
same,Papp (A to B) of digoxin,"human P‐gp (ABCB1, MDR1); [3]",1.1 ± 0.3 ×10^−6 cm/s
same,Papp (B to A) of digoxin,"human P‐gp (ABCB1, MDR1); [3]",22.4 ± 4.0 ×10^−6 cm/s
